From ChEMBL document CHEMBL1201862, “PubChem BioAssay data set” (2004)
Activity calls are given as the source filed them.

Legend:
[1] = biological target: T1, Tyrosine-protein phosphatase non-receptor type 22 (Homo sapiens, UniProt Q9Y2R2); experiment: PTPN22 lymphoid phosphatase activity blockers – biochemical, fluorescence intensity, uHTS (AID 1779)
T1 sequence (Q9Y2R2 whole entry): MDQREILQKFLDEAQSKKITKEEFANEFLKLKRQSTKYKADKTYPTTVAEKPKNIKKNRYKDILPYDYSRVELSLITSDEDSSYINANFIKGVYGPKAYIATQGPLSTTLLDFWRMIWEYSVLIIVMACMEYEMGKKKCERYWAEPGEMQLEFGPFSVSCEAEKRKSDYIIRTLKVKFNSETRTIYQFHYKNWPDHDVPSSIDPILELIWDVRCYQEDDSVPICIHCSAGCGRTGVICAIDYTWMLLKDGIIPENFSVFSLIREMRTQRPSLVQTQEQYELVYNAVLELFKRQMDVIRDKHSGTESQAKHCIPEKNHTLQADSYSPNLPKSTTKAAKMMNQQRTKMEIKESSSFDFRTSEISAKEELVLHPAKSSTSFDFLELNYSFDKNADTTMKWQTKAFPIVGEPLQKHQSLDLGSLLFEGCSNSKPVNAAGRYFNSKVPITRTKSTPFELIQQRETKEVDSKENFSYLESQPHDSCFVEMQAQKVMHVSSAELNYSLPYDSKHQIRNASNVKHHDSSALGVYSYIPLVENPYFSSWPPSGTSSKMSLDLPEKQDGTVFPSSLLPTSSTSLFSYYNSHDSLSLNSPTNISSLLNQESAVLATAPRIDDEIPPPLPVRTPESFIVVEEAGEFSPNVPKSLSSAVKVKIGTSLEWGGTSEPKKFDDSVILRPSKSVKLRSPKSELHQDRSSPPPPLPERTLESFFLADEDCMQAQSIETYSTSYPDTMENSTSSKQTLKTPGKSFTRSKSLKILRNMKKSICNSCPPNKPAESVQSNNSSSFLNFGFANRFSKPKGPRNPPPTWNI

[2] = biological target: T1, Tyrosine-protein phosphatase non-receptor type 22; type: functional
[3] = biological target: 72 kDa type IV collagenase (Homo sapiens, UniProt P08253); experiment: Dose Response validation of uHTS RPN11 inhibitor hits using a MMP-2 Fluorescence assay.; type: functional
[4] = biological target: Guanyl-specific ribonuclease T1 (Aspergillus oryzae (strain ATCC 42149 / RIB 40), UniProt P00651); experiment: inhibition of ribonuclease T1 activity – biochemical, fluorescence polarization, 1536-well, counter-screen for TPT1 inhibitor project, dose response (AID 2167)
[5] = biological target: T2, Tyrosine-protein phosphatase non-receptor type 7 (Homo sapiens, UniProt P35236); type: functional
T2 sequence (P35236 whole entry): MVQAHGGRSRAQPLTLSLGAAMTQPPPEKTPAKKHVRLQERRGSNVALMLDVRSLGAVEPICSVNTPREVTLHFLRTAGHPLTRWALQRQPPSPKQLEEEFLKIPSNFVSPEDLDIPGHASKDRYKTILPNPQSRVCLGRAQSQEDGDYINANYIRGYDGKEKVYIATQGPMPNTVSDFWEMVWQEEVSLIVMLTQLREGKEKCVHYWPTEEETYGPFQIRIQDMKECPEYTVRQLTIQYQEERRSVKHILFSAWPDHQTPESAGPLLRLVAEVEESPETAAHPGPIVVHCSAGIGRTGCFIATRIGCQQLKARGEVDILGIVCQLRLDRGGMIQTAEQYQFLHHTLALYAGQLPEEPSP

[6] = biological target: T1, Tyrosine-protein phosphatase non-receptor type 22; experiment: LYP1 Fluorescent Assay using OMFP substrate for In Vitro dose response studies. [Related pubchem assays (depositor defined):AID1779, AID1784, AID435024]
[7] = biological target: T2, Tyrosine-protein phosphatase non-receptor type 7; experiment: HTS HePTP Fluorescent Assay using OMFP substrate for In Vitro dose response studies. [Related pubchem assays (depositor defined):AID1059, AID1077, AID1784, AID2068, AID2085, AID435032, AID521]; type: functional
[8] = biological target: Photoreceptor-specific nuclear receptor (Homo sapiens, UniProt Q9Y5X4); experiment: ligands suppressing NR2E3 nuclear receptor activity – biochemical, TR-FRET, dose response (AID 463256); type: functional
Prothrombin = Prothrombin (Bos taurus, UniProt P00735); experiment: thrombin protease inhibitors – biochemical, fluorescence polarization, uHTS hits, dose response (AID 602369); type: functional
[9] = biological target: Serine/threonine-protein phosphatase PP1-alpha catalytic subunit (Homo sapiens, UniProt P62136); experiment: inhibition of protein phosphatase 1 activity – biochemical, fluorescence, dose response (AID 2403);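 also: phosphatase turnover of OMFP into fluorescent 3-O-methylfluorescein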
[10] = biological target: 26S proteasome non-ATPase regulatory subunit 14 (Homo sapiens, UniProt O00487); experiment: inhibition of proteasome subunit RPN11 – biochemical, fluorescence polarization, uHTS hits, confirmation (AID 602368); type: functional
[11] = biological target: Peroxisome proliferator-activated receptor gamma/Nuclear receptor corepressor 2 (Homo sapiens, UniProt P37231+Q9Y618); experiment: Counterscreen for NR2E3 inverse agonists: TR-FRET-based biochemical high throughput dose response assay to identify inverse agonists of the interaction between peroxisome proliferator-activated receptor gamma (PPARg) and nuclear receptor co-repressor 2 (NCOR2).; type: functional
[12] = biological target: T1, Tyrosine-protein phosphatase non-receptor type 22; type: functional; remark: listed apart in the source
Major prion protein = Major prion protein (Homo sapiens, UniProt P04156); type: functional, cell-based
[13] = biological target: Likely tRNA 2'-phosphotransferase (Candida albicans (strain SC5314 / ATCC MYA-2876) (Yeast), UniProt Q5A7N4); experiment: inhibition of Candida TPT1 enzyme activity – biochemical, fluorescence polarization, dose response (AID 2160)
[14] = biological target: T3, Serine/threonine-protein phosphatase (Homo sapiens, UniProt Q9BPW0); experiment: Counterscreen for inhibitors of PP1: fluorescence-based biochemical high throughput dose response assay to identify inhibitors of Protein Phosphatase 5 (PP5). [Related pubchem assays: 2034 (Summary (PP5 inhibitors)), 1987 (PP5 inhibitors in singlate), 2235 (PP1 inhibitors in singlate)]
T3 sequence (Q9BPW0 whole entry): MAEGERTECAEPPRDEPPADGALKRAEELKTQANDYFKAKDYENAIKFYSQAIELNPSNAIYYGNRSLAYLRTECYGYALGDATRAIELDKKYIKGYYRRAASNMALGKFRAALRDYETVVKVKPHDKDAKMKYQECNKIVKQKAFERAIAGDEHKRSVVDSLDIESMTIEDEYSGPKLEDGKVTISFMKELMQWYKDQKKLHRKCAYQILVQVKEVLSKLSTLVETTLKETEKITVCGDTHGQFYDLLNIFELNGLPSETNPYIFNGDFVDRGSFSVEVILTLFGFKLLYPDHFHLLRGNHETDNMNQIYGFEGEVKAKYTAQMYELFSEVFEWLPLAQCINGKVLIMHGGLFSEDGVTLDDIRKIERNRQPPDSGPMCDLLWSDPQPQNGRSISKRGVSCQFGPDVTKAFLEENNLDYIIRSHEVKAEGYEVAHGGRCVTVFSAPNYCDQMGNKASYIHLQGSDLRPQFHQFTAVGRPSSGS

[15] = biological target: T4, G-protein coupled receptor 55 (Homo sapiens, UniProt Q9Y2T6); experiment: selective activators of receptor GPR55 – imaging, U2OS cells, beta-arrestin-GFP redistribution, primary screen (AID 1961); type: functional
Cannabinoid receptor 2 [16] = biological target: T5, Cannabinoid receptor 2 (Homo sapiens, UniProt P34972); experiment: SAR analysis of antagonists of the Cannabinoid Receptor 2 using an Image-Based Assay - Set 2. [Related pubchem assays (depositor defined):AID1961, AID1965]; type: functional
Cannabinoid receptor 2 [17] = biological target: T5, Cannabinoid receptor 2; experiment: SAR analysis of agonists of the Cannabinoid Receptor 2 using an Image-Based Assay - Set 2. [Related pubchem assays (depositor defined):AID1961, AID1965]; type: functional
[18] = biological target: T4, G-protein coupled receptor 55; experiment: SAR analysis of selective Agonists of GPR55 using an Image-Based Assay. [Related pubchem assays (depositor defined):AID1961, AID1965]; type: functional
Cannabinoid receptor 1 = Cannabinoid receptor 1 (Homo sapiens, UniProt P21554); experiment: SAR analysis of antagonists of the Cannabinoid Receptor 1 using an Image-Based Assay. [Related pubchem assays (depositor defined):AID1961, AID1965]; type: functional

Which IC50 [1] does the source give for COc1ccc(Cl)cc1C(=O)Nc1cccc(-c2ccc3nncn3n2)c1 here?
The IC50 was 50.8 µM (active).

And the IC50 [2]?
Its IC50 is 16 µM (active).

And the IC50 [3]?
Its IC50 is 8.37 µM (active).

What about the IC50 [4] of the same compound?
Its IC50 is 7.18 µM (active).

And the IC50 [5]?
Its IC50 is 48.7 µM (active).

And the IC50 [6]?
Its IC50 is > 99 µM (inactive).

What about the IC50 [7] of the same compound?
The IC50 was 37.9 µM (active).

And the IC50 [8]?
Its IC50 is 2.86 µM (active).

What about the IC50 (Prothrombin) of the same compound?
Its IC50 is 30.2 µM (active).

And the IC50 [9]?
Its IC50 is 6.56 µM (active).

What about the IC50 [10] of the same compound?
Its IC50 is 12 µM (active).

What about the IC50 [11] of the same compound?
The IC50 was 5.06 µM (active).

What about the IC50 [12] of the same compound?
The IC50 was 38.5 µM (active).

What about the IC50 (Major prion protein) of the same compound?
The IC50 was 9.03 µM (active).

And the IC50 [13]?
The IC50 was 5.93 µM (active).

And the IC50 [14]?
Its IC50 is > 67 µM (not active).

What about the IC50 (cells) of the same compound?
The IC50 was > 138 µM (inactive).

For CC(C)Oc1ccc(S(=O)(=O)N2CCOCC2)cc1NC(=O)c1ccc(N2CCCC2=O)cc1, which EC50 [15] is on record?
Its EC50 is 0.969 µM (active).

And the IC50 (Cannabinoid receptor 2 [16])?
Its IC50 is > 32 µM (inactive).

What about the EC50 (Cannabinoid receptor 2 [17]) of the same compound?
The EC50 was > 32 µM (inactive).

What about the EC50 [18] of the same compound?
The EC50 was 0.88 µM (active).

What about the IC50 (Cannabinoid receptor 1) of the same compound?
Its IC50 is > 32 µM (inactive).
